According to ChEMBL document CHEMBL3864133, “Discovery of a Potent and Selective in Vivo Probe (GNE-272) for the Bromodomains of CBP/EP300” (J Med Chem, 2016):
Calls of active or inactive are those of the source. The rule behind the calls is not given here.

Tests used:
[1] = Half life in nu/nu mouse at 1 mg/kg, iv or 100 mg/kg, po by LC-MS/MS analysis; type: ADME, organism-based; settings: in vivo
[2] = molecular target: T1, CREB-binding protein/Histone acetyltransferase p300 (Homo sapiens, UniProt Q09472+Q92793); experiment: Inhibition of CBP/EP300 in human MOLM16 cells assessed as suppression of CCND1 expression at 5 uM measured after 4 hrs by RT-PCR analysis relative to DMSO control; type: cell-based
T1 sequence (Q09472 whole entry, looked up): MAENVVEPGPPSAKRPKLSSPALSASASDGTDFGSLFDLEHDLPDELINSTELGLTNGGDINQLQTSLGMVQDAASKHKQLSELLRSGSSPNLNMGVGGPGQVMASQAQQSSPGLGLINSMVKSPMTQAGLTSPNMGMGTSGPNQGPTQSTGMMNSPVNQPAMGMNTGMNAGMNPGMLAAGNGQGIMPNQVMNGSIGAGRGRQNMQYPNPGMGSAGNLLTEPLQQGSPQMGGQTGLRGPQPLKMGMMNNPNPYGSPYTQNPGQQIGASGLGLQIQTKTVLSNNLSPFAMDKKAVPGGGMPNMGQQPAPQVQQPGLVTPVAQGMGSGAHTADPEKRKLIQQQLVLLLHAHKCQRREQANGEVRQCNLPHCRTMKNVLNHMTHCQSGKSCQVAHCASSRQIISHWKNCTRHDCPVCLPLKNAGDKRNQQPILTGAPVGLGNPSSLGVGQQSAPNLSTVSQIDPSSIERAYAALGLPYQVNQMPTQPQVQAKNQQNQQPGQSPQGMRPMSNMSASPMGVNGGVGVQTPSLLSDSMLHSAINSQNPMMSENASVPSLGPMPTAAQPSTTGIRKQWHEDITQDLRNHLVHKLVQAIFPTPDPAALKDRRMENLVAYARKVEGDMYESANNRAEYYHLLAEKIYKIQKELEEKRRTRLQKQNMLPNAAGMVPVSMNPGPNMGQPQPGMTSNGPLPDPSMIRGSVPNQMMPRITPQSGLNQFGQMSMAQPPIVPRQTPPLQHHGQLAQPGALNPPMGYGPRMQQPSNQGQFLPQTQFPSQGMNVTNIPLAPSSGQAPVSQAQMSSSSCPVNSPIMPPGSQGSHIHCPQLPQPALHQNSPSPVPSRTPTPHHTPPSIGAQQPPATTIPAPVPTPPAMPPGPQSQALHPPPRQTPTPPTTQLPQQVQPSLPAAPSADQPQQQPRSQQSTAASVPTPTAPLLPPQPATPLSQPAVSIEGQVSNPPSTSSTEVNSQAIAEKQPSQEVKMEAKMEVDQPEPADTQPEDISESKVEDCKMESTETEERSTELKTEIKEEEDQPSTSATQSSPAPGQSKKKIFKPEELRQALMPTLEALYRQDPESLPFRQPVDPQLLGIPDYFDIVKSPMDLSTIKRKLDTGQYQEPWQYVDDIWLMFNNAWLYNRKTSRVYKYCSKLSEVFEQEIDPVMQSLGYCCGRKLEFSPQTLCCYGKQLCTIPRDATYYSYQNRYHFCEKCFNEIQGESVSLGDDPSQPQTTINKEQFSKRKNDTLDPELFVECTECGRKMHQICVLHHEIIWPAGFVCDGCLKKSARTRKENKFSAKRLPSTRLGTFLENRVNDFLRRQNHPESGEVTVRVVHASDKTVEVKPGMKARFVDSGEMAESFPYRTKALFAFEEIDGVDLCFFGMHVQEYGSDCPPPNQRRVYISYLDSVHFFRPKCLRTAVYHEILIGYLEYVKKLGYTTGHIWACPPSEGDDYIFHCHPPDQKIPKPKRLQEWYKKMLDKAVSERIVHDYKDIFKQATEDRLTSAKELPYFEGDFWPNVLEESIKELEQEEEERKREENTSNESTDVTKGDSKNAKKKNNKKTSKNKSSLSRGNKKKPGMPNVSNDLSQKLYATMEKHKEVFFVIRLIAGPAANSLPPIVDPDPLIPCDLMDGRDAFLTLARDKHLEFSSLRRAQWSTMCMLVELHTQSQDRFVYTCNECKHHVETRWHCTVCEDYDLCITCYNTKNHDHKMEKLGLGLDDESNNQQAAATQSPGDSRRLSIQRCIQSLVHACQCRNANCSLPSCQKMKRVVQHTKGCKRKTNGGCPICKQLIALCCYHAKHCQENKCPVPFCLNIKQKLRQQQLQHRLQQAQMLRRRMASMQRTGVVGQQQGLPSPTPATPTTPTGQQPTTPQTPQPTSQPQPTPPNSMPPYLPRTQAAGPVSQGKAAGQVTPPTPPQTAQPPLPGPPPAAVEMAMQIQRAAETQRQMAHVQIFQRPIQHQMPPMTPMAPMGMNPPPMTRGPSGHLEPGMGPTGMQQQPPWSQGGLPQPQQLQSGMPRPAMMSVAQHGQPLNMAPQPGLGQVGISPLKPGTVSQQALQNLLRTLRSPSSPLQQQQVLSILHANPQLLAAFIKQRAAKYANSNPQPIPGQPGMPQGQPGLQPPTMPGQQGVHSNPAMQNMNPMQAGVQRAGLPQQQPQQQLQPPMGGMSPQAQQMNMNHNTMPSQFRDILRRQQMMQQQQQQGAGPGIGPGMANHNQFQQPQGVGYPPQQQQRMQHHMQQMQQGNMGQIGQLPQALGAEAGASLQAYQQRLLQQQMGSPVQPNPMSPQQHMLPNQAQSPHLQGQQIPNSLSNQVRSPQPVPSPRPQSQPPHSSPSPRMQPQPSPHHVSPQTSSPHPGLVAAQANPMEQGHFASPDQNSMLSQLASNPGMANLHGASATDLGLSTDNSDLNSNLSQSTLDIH
T1 sequence (Q92793 whole entry, looked up): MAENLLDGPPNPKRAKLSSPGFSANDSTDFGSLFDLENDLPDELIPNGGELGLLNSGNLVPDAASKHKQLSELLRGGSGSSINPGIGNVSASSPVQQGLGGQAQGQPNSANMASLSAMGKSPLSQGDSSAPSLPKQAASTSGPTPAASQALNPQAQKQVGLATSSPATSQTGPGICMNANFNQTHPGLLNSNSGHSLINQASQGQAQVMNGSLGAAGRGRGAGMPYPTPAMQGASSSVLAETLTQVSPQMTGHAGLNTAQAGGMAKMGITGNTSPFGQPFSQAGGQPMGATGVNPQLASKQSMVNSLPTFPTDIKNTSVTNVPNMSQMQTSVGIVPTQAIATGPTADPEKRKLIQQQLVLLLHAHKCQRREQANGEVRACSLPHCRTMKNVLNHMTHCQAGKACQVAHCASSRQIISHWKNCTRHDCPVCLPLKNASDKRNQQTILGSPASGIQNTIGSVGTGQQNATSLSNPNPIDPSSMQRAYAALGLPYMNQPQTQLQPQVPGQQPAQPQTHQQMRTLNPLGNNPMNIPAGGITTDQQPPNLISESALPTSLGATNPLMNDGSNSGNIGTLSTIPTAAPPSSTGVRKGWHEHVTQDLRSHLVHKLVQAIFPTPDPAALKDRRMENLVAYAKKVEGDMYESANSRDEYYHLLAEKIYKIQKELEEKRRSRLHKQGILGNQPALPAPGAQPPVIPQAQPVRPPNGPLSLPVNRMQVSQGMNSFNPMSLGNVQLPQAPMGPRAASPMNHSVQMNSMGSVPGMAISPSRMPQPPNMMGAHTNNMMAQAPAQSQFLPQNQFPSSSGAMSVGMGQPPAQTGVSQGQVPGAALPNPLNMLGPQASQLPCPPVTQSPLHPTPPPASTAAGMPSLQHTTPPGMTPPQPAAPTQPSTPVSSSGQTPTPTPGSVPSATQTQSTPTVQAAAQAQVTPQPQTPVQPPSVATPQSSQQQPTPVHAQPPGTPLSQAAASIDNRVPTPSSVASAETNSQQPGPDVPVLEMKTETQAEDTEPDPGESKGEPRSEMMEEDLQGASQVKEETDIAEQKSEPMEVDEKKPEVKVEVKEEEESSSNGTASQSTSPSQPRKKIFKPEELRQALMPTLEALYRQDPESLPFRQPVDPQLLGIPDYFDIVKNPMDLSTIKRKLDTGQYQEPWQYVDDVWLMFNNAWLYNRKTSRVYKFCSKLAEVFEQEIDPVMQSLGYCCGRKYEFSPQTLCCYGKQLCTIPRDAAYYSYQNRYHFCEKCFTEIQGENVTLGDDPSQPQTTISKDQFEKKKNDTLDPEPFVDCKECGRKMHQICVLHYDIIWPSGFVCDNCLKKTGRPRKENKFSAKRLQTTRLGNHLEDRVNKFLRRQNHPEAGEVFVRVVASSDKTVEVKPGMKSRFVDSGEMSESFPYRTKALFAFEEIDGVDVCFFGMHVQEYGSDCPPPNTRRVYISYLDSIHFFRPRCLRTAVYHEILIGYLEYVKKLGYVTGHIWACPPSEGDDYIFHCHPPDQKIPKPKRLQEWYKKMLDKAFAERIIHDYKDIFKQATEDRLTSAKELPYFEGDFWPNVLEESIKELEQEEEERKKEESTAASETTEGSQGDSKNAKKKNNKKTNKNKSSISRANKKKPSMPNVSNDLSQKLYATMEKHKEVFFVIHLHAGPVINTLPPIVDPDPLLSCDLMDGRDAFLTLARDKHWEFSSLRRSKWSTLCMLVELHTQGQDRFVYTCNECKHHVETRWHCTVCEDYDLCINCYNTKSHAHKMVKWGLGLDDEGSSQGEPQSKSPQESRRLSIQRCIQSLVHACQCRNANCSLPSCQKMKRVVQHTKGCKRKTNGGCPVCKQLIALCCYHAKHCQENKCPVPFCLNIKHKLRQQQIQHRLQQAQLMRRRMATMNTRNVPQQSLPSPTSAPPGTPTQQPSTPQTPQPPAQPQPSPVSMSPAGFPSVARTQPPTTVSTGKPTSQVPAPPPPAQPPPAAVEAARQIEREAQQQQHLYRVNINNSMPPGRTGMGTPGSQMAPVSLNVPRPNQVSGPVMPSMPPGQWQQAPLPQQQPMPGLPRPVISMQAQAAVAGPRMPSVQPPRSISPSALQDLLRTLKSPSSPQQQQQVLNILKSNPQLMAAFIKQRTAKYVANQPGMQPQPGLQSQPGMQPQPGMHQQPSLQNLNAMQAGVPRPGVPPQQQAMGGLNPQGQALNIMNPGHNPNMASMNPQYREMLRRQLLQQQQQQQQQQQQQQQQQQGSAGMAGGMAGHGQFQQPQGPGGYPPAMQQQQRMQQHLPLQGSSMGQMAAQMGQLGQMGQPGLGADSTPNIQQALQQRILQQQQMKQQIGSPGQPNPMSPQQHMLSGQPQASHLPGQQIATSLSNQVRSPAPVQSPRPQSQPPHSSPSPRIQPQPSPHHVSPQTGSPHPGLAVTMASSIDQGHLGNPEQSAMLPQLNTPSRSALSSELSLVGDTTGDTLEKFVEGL

[3] = system: Mus musculus; experiment: Toxicity in SCID beige mouse xenografted with human MOLM16 cells assessed as body weight loss at 12.5 to 50 mg/kg, po BID administered through gavage for 21 days; type: organism-based; settings: in vivo
[4] = Decrease in MYC mRNA expression in tumor of SCID beige mouse xenografted with human MOLM16 cells at 30 mg/kg, po administered twice daily via gavage as single dose measured after 2 hrs by RT-PCR analysis relative to control; type: functional, organism-based
[5] = molecular target: T2, Cytochrome P450 3A4 (Homo sapiens, UniProt P08684); experiment: Inhibition of CYP3A4 in human liver microsomes assessed as formation of 1-hydroxymidazolam from midazolam measured after 10 mins in presence of NADPH by LC-MS/MS analysis; type: ADME
[6] = molecular target: T1, CREB-binding protein/Histone acetyltransferase p300; experiment: Inhibition of CBP/EP300 in human Pfeiffer cells assessed as decrease in MYC expression at 5 uM measured after 4 hrs by RT-PCR analysis relative to DMSO control; type: cell-based
[7] = Clearance in nu/nu mouse at 1 mg/kg, iv by LC-MS/MS analysis; type: ADME, organism-based; settings: in vivo
[8] = system: Kasumi 1; experiment: Antiproliferative activity against human Kasumi-1 cells measured after 6 days by CellTiter-Glo assay; type: functional, cell-based
[9] = molecular target: T1, CREB-binding protein/Histone acetyltransferase p300; experiment: Inhibition of CBP/EP300 in human KMS34 cells assessed as decrease in MYC expression at 5 uM measured after 4 hrs by RT-PCR analysis relative to DMSO control; type: cell-based
[10] = system: KMS34; experiment: Antiproliferative activity against human KMS34 cells measured after 6 days by CellTiter-Glo assay; type: functional, cell-based
[11] = system: LP-1; experiment: Antiproliferative activity against human LP-1 cells measured after 6 days by CellTiter-Glo assay; type: functional, cell-based
[12] = molecular target: T2, Cytochrome P450 3A4; experiment: Inhibition of CYP3A4 in human liver microsomes assessed as formation of 6beta-hydroxytestosterone from testosterone measured after 10 mins in presence of NADPH by LC-MS/MS analysis; type: ADME; settings: read-out: INH

Q: What does the source list for `CC(=O)N1CCc2c(c(Nc3ccc(-c4cnn(C)c4)cc3F)nn2[C@@H]2CCOC2)C1`?
A: half-life [1]: 2 h; inhibition [2]: Active; Activity [3]: 7.4%; inhibition [4]: 78%; INH [5]: > 10 µM; inhibition [6]: Active; clearance [7]: 9.6 mL/min/kg; Activity [8]: Active; inhibition [9]: Active; Activity [10]: Active; Activity [11]: Active; IC50 [12]: > 10 µM
